According to article PMC10657444, “Design and evaluation of tadpole-like conformational antimicrobial peptides” (Communications Biology, 2023):
Converted amounts (≈) assume the structure as drawn. Like-named read-outs stand apart in the source and are kept apart here. Residues, ends and D or L forms follow the SMILES beside them.

What was measured:
sheep red blood cells = experiment: Hemolysis assay; settings: red cells of sheep, 1 h
Protocol: To evaluate the hemolysis effects of peptides, red blood hemolysis was performed as described with minimum modifications. Sterile defibrated sheep blood was purchased from Guangzhou Hongquan Biotechnology Co., LTD. Blood cells were adjusted to 2 × 10^9 cells/mL in phosphate-buffered saline (PBS, pH 7.4). In total, 98 μL sheep red blood cell suspension was incubated with 2 μL of peptides at different concentrations ranging from 3.13 to 100 µM. After incubation for 1 h at 37 °C, the cells were centrifuged and the absorbance of the supernatant was measured at 450 nm. The value for “zero hemolysis” was determined using sterile PBS, while 100% hemolysis was established using 1.5% (v/v) Triton X-100. Hemolysis of testing sample was calculated as the percentage of Triton X-100-induced hemolysis.

[1] = system: Gram-negative bacterial strains; assay type: cell-based
Excerpt: (§1) Bacteria were cultivated in Luria-Bertani (LB) broth.

MTT cytotoxicity assay = assay type: cell-based, human; settings: human; for viability at 72 h, 0.39 µM / viability at 72 h, 0.78 µM / viability at 72 h, 1.57 µM / viability at 72 h, 6.25 µM / viability at 72 h, 12.5 µM / viability at 72 h, 25 µM / viability at 72 h, 50 µM / viability at 72 h, 100 µM / viability at 72 h, 3.13 µM: HEK293T cells, OD450, cytotoxicity (Fig 2a), replicates
Protocol: (§2) To determine the cytotoxicity of the peptides, we used the MTT (3-(4,5)-dimethylthiahiazo (-z-y1)-3,5-di-phenytetrazoliumromide) dye reduction assay against HEK293T cells. In brief, the 100 μL of cells in 96-well plate were incubated for 24 h at 37 °C, 5% CO2, and then peptide solutions (concentrations ranging from 100 to 0.39 μM) were added and further incubated for 72 h. MTT solution (5 mg/mL) was added and further incubated for 4 h. After incubation, the precipitated MTT formazan crystal was dissolved by addition of dimethyl sulfoxide (DMSO). […]

HEK293T cells = experiment: MTT cytotoxicity assay; assay type: cell-based, human
Protocol: as §2

E. coli ATCC 25922 = assay type: cell-based, Escherichia coli
Excerpt: as §1

E. coli S = assay type: cell-based, Escherichia coli
Excerpt: as §1

[2] = system: K. pneumoniae ATCC 700603; assay type: cell-based, Klebsiella pneumoniae
Excerpt: as §1

K. pneumoniae 3026 = assay type: cell-based, Klebsiella pneumoniae
Excerpt: as §1

A. baumannii 1318 = assay type: cell-based, Acinetobacter baumannii
Excerpt: as §1

A. baumannii 1337 = assay type: cell-based, Acinetobacter baumannii
Excerpt: as §1

MRSA USA 300 = assay type: cell-based, Staphylococcus aureus
Excerpt: as §1

MRSA 3393 = assay type: cell-based, Staphylococcus aureus
Excerpt: as §1

MRSA ATCC 43300 = assay type: cell-based, Staphylococcus aureus
Excerpt: as §1

MRSA = assay type: cell-based, Staphylococcus aureus
Excerpt: as §1

SMILES	HC10 (concentration inducing 10% hemolysis) (sheep red blood cells)	IC50 at 72 h (MTT cytotoxicity assay)	viability at 72 h, 0.39 µM (MTT cytotoxicity assay)	viability at 72 h, 0.78 µM (MTT cytotoxicity assay)	viability at 72 h, 1.57 µM (MTT cytotoxicity assay)	viability at 72 h, 6.25 µM (MTT cytotoxicity assay)	viability at 72 h, 12.5 µM (MTT cytotoxicity assay)	viability at 72 h, 25 µM (MTT cytotoxicity assay)	viability at 72 h, 50 µM (MTT cytotoxicity assay)	viability at 72 h, 100 µM (MTT cytotoxicity assay)	toxicity / cytotoxicity against HEK293T cells (in words) (HEK293T cells)	MIC Gram- E. coli ATCC 25922 (E. coli ATCC 25922)	MIC Gram- E. coli S (E. coli S)	MIC Gram- K. p ATCC 700603 [2]	MIC Gram- K. p 3026 (K. pneumoniae 3026)	MIC Gram- A. b 1318 (A. baumannii 1318)	MIC Gram- A. b 1337 (A. baumannii 1337)	MIC Gram+ MRSA USA 300 (MRSA USA 300)	MIC Gram+ MRSA ATCC 43300 (MRSA ATCC 43300; ATCC 43300)	MIC Gram+ MRSA 3393 (MRSA 3393; 3393)	other results
CC[C@H](C)[C@H](NC(=O)[C@H](CCCNC(=N)N)NC(=O)[C@H](CCCNC(=N)N)NC(=O)[C@H](CC(C)C)NC(=O)[C@H](Cc1ccccc1)NC(=O)[C@H](Cc1ccccc1)NC(=O)[C@H](Cc1ccccc1)NC(=O)[C@@H](N)Cc1ccccc1)C(=O)N[C@@H](Cc1ccccc1)C(=O)N[C@@H](CCCNC(=N)N)C(=O)N[C@@H](CCCNC(=N)N)C(N)=O [F-SHf(R^5)-RR] (H-FFFFLRRIFRR-NH2; N-terminus assumed)	> 100.0 µM	500 nM	69.1%	45.9%	6.12%	3.98%	2.72%	3.79%	2.62%	1.75%	high toxicity	12.5 µM (≈ 20 µg/mL)	6.25 µM (≈ 10 µg/mL)	25 µM (≈ 40.1 µg/mL)	12.5 µM (≈ 20 µg/mL)	12.5 µM (≈ 20 µg/mL)	12.5 µM (≈ 20 µg/mL)	1.57 µM (≈ 2.52 µg/mL)	1.57 µM (≈ 2.52 µg/mL)		MICs against the tested Gram-negative bacterial strains [1]: 6.25 to 25 µM; MIC Gram+ MRSA 3393 (MRSA 3393): 1.57 µM (≈ 2.52 µg/mL); MIC Gram+ MRSA ATCC 43300 (MRSA ATCC 43300): 1.57 µM (≈ 2.52 µg/mL)
CC[C@H](C)[C@H](NC(=O)[C@H](CCCNC(=N)N)NC(=O)[C@H](CCCNC(=N)N)NC(=O)[C@H](CC(C)C)NC(=O)[C@H](Cc1ccccc1)NC(=O)[C@H](Cc1ccccc1)NC(=O)[C@H](Cc1ccccc1)NC(=O)[C@@H](N)Cc1ccccc1)C(=O)N[C@@H](Cc1ccccc1)C(=O)N[C@@H](CCCNC(=N)N)C(N)=O [F-SHf(R^5)-R] (H-FFFFLRRIFR-NH2; N-terminus assumed)	36.5 µM	200 nM	35.2%	26.2%	12.3%	4.46%	3.13%	3.84%	2.63%	1.58%	high toxicity	6.25 µM (≈ 9.05 µg/mL)	12.5 µM (≈ 18.1 µg/mL)	12.5 µM (≈ 18.1 µg/mL)	25 µM (≈ 36.2 µg/mL)	12.5 µM (≈ 18.1 µg/mL)	12.5 µM (≈ 18.1 µg/mL)	1.57 µM (≈ 2.27 µg/mL)	1.57 µM (≈ 2.27 µg/mL)		MICs against the tested Gram-negative bacterial strains [1]: 6.25 to 25 µM; viability at 72 h, 3.13 µM (MTT cytotoxicity assay): 9.86%; MIC Gram+ MRSA 3393 (MRSA 3393): 1.57 µM (≈ 2.27 µg/mL); MIC Gram+ MRSA ATCC 43300 (MRSA ATCC 43300): 1.57 µM (≈ 2.27 µg/mL)
CC[C@H](C)[C@H](NC(=O)[C@H](CCCNC(=N)N)NC(=O)[C@H](CCCNC(=N)N)NC(=O)[C@H](CC(C)C)NC(=O)[C@H](Cc1ccccc1)NC(=O)[C@H](Cc1ccccc1)NC(=O)[C@H](Cc1ccccc1)NC(=O)[C@@H](N)Cc1ccccc1)C(=O)N[C@@H](Cc1ccccc1)C(N)=O [F-SHf(R^5)] (H-FFFFLRRIF-NH2; N-terminus assumed)	7.9 µM	4600 nM	102%	89.7%	89.3%	40.1%	20.8%	12.3%	16.4%	17.1%	high toxicity	12.5 µM (≈ 16.1 µg/mL)	50 µM (≈ 64.6 µg/mL)	> 100 µM	100 µM (≈ 129 µg/mL)	25 µM (≈ 32.3 µg/mL)	25 µM (≈ 32.3 µg/mL)	3.13 µM (≈ 4.04 µg/mL)	1.57 µM (≈ 2.03 µg/mL)	1.57 µM (≈ 2.03 µg/mL)	viability at 72 h, 3.13 µM (MTT cytotoxicity assay): 78.6%
CC[C@H](C)[C@H](NC(=O)[C@H](CCCNC(=N)N)NC(=O)[C@H](CO)NC(=O)[C@H](CC(C)C)NC(=O)[C@H](Cc1ccccc1)NC(=O)[C@H](Cc1ccccc1)NC(=O)[C@H](Cc1ccccc1)NC(=O)[C@H](Cc1ccccc1)NC(=O)[C@@H](N)Cc1ccccc1)C(=O)N[C@@H](Cc1ccccc1)C(N)=O [FF-SHf] (H-FFFFFLSRIF-NH2; N-terminus assumed)												> 100 µM	> 100 µM	> 100 µM	> 100 µM	> 100 µM	> 100 µM	6.25 µM (≈ 8.56 µg/mL)	50 µM (≈ 68.5 µg/mL)	3.13 µM (≈ 4.29 µg/mL)	MICs against MRSA (MRSA): 3.13 to 50 µM
CC[C@H](C)[C@H](NC(=O)[C@H](CCCNC(=N)N)NC(=O)[C@H](CO)NC(=O)[C@H](CC(C)C)NC(=O)[C@H](Cc1ccccc1)NC(=O)[C@H](Cc1ccccc1)NC(=O)[C@H](Cc1ccccc1)NC(=O)[C@@H](N)Cc1ccc(O)cc1)C(=O)N[C@@H](Cc1ccccc1)C(N)=O [Y-SHf] (H-YFFFLSRIF-NH2; N-terminus assumed)												> 100 µM	> 100 µM	> 100 µM	> 100 µM	> 100 µM	> 100 µM	12.5 µM (≈ 15.5 µg/mL)	12.5 µM (≈ 15.5 µg/mL)	12.5 µM (≈ 15.5 µg/mL)	
CC[C@H](C)[C@H](NC(=O)[C@H](CCCNC(=N)N)NC(=O)[C@H](CO)NC(=O)[C@H](CC(C)C)NC(=O)[C@H](Cc1ccccc1)NC(=O)[C@H](Cc1ccccc1)NC(=O)[C@H](Cc1ccccc1)NC(=O)[C@H](Cc1ccc(O)cc1)NC(=O)[C@@H](N)Cc1ccc(O)cc1)C(=O)N[C@@H](Cc1ccccc1)C(N)=O [YY-SHf] (H-YYFFFLSRIF-NH2; N-terminus assumed)												> 100 µM	> 100 µM	> 100 µM	> 100 µM	> 100 µM	> 100 µM	6.25 µM (≈ 8.76 µg/mL)	6.25 µM (≈ 8.76 µg/mL)	50 µM (≈ 70.1 µg/mL)	MICs against MRSA (MRSA): 3.13 to 50 µM
